Test results as given in ChEMBL document CHEMBL5352479, “Prenylated flavonoids with significant anti-hepatoma activity from Daphne giraldii and effects on Fibroblast Growth Factor Receptor 1 (FGFR1)” (Eur J Med Chem, 2023).

How the values were obtained:
[1] = tested on: Hep 3B2; assay: Cytotoxicity against human Hep3B cells assessed as inhibition of cell proliferation incubated for 48 hrs by MTT assay; format: functional, cell-based
[2] = tested on: HepG2; assay: Cytotoxicity against human HepG2 cells assessed as inhibition of cell proliferation incubated for 48 hrs by MTT assay; format: functional, cell-based; details: HepG2, 48 h
[3] = tested on: Hep 3B2; assay: Induction of apoptosis in human Hep3B cells assessed as early apoptotic cells at 3 uM incubated for 48 hrs by Annexin V-FITC/PI staining based flow cytometry analysis (reference value: 1.26%); format: functional
[4] = tested on: Hep 3B2; assay: Induction of apoptosis in human Hep3B cells assessed as late apoptotic cells at 3 uM incubated for 48 hrs by Annexin V-FITC/PI staining based flow cytometry analysis (reference value: […]%); format: functional
[5] = tested on: Hep 3B2; assay: Induction of apoptosis in human Hep3B cells assessed as necrotic cells at 3 uM incubated for 48 hrs by Annexin V-FITC/PI staining based flow cytometry analysis (reference value: 6.12%); format: functional
[6] = tested on: Hep 3B2; assay: Induction of apoptosis in human Hep3B cells assessed as viable cells at 3 uM incubated for 48 hrs by Annexin V-FITC/PI staining based flow cytometry analysis (reference value: 87.1%); format: functional; details: read-out: Activity
[7] = tested on: Hep 3B2; assay: Induction of apoptosis in human Hep3B cells assessed as late apoptotic cells at 3 uM incubated for 48 hrs by Annexin V-FITC/PI staining based flow cytometry analysis (reference value: 0.117%); format: functional
[8] = tested on: Hep 3B2; assay: Induction of apoptosis in human Hep3B cells assessed as early apoptotic cells at 3 uM incubated for 48 hrs by Annexin V-FITC/PI staining based flow cytometry analysis (reference value: 4.54%); format: functional
[9] = tested on: Hep 3B2; assay: Induction of apoptosis in human Hep3B cells assessed as necrotic cells at 3 uM incubated for 48 hrs by Annexin V-FITC/PI staining based flow cytometry analysis (reference value: 0%); format: functional
[10] = tested on: Hep 3B2; assay: Induction of apoptosis in human Hep3B cells assessed as viable cells at 3 uM incubated for 48 hrs by Annexin V-FITC/PI staining based flow cytometry analysis (reference value: 95.3%); format: functional; details: read-out: Activity

Row | Compound | IC50 [1] | IC50 [2] | also measured
1 | COC1=C(c2ccc(O)cc2)Oc2c(CC=C(C)C)c(O)cc(O)c2C1O (centres undefined) | 3.96 µM | 13.6 µM | –
2 | C=C(C)C(O)Cc1cc(-c2oc3c(CC=C(C)C)c(O)cc(O)c3c(=O)c2OC)ccc1O (centres undefined) | 0.41 µM | 42.2 µM | Activity [3]: 19.6%; Activity [4]: 19.7%; Activity [5]: 0.923%; viability at 3 µM [6]: 59.7%
3 | COc1c(-c2cc3c(c(O)c2CC=C(C)C)OC(C)(C)C=C3)oc2c(CC=C(C)C)c(O)cc(O)c2c1=O | 6.37 µM | 30.7 µM | –
4 | CC(C)=CCc1cc([C@@H]2Oc3c(CC=C(C)C)c(O)cc(O)c3C(=O)[C@H]2O)cc(CC=C(C)C)c1O | > 50 µM | > 50 µM | –
5 | CC1(C)Oc2ccc(-c3oc4cc(O)cc(O)c4c(=O)c3O)cc2CC1O (centres undefined) | 9.55 µM | > 50 µM | –
6 | CC(C)=CCc1cc([C@H]2Oc3cc(O)ccc3C[C@H]2O)cc(CC=C(C)C)c1O | > 50 µM | > 50 µM | –
7 | CC(C)=CCc1cc(-c2oc3cc(O)cc(O)c3c(=O)c2O)ccc1O [ISOLICOFLAVONOL] | 11.5 µM | 44.7 µM | –
8 | COc1c(-c2cc(O)c(O)c(CC=C(C)C)c2)oc2c3c(cc(O)c2c1=O)OC(C(C)(C)O)C3 (centres undefined) | 3.62 µM | > 50 µM | –
9 | COc1c(-c2ccc(O)c(O)c2)oc2c3c(c(CC=C(C)C)c(O)c2c1=O)OC(C(C)(C)O)C3 (centres undefined) | 8.89 µM | 26.9 µM | –
10 | C=C(C)C(O)Cc1c(O)c(CC=C(C)C)c2oc(-c3ccc(O)c(O)c3)c(OC)c(=O)c2c1O (centres undefined) | 37.1 µM | > 50 µM | –
11 | CC(C)=CCc1cc(-c2oc3c(CC=C(C)C)c(O)cc(O)c3c(=O)c2O)ccc1O [BROUSSOFLAVONOL F] | 1.15 µM | 30.8 µM | Activity [7]: 25.5%; Activity [8]: 19.1%; Activity [9]: 0.251%; viability at 3 µM [10]: 55.1%
12 | COc1c(-c2cc(O)c3c(c2)CC(C(C)(C)O)O3)oc2c(CC=C(C)C)c(O)cc(O)c2c1=O (centres undefined) | 0.49 µM | 47.4 µM | Activity [3]: 15.4%; Activity [4]: 48.2%; Activity [5]: 2.55%; viability at 3 µM [6]: 33.8%
13 | COc1c(-c2ccc(O)c(CC=C(C)C)c2)oc2c(CC=C(C)C)c(O)cc(O)c2c1=O | 2.31 µM | > 50 µM | Activity [7]: 10.7%; Activity [8]: 37.4%; Activity [9]: 0.097%; viability at 3 µM [10]: 51.9%
14 | COc1c(-c2ccc(O)c(O)c2)oc2c(CC=C(C)C)c(O)c(CC=C(C)C)c(O)c2c1=O | 17.7 µM | 43.3 µM | –
15 | COc1c(-c2cc(O)c(O)c(CC=C(C)C)c2CC=C(C)C)oc2cc(O)cc(O)c2c1=O | 33.5 µM | 39.1 µM | –
16 | COc1c(-c2cc(O)c3c(c2)CC(O)C(C)(C)O3)oc2c(CC=C(C)C)c(O)cc(O)c2c1=O (centres undefined) | 0.63 µM | 49.1 µM | Activity [3]: 21.9%; Activity [4]: 52.4%; Activity [5]: 2.34%; viability at 3 µM [6]: 23.3%
17 | COc1c(-c2ccc(O)c(CC=C(C)C)c2)oc2cc(O)cc(O)c2c1=O | 0.99 µM | 50.5 µM | Activity [3]: 1.97%; Activity [4]: 8.68%; Activity [5]: 2.29%; viability at 3 µM [6]: 87.1%
18 | CC(C)=CCc1cc([C@H]2Oc3c(CC=C(C)C)c(O)cc(O)c3C(=O)[C@@H]2O)cc(CC=C(C)C)c1O | > 50 µM | > 50 µM | –
19 | CC1(C)C=Cc2cc(-c3oc4cc(O)cc(O)c4c(=O)c3O)cc(O)c2O1 | 28.2 µM | > 50 µM | –
20 | COc1c(-c2cc(O)c(O)c(CC=C(C)C)c2)oc2c(CC=C(C)C)c(O)cc(O)c2c1=O | 1.07 µM | 32.6 µM | Activity [7]: 9.35%; Activity [8]: 41.2%; Activity [9]: 0.121%; viability at 3 µM [10]: 49.3%
21 | COc1c(-c2ccc(O)c(O)c2)oc2c(CC=C(C)C)c(O)cc(O)c2c1=O | 2.39 µM | > 50 µM | –
22 | CNC(=O)c1cc(Oc2ccc(NC(=O)Nc3ccc(Cl)c(C(F)(F)F)c3)cc2)ccn1 [SORAFENIB] | 8.55 µM | – | –
23 | COc1c(-c2ccc(O)c(O)c2)oc2c(C/C=C(\C)CCC=C(C)C)c(O)cc(O)c2c1=O | 4.8 µM | 30.4 µM | –
24 | C=C(C)C(O)Cc1cc(-c2oc3c(CC=C(C)C)c(O)cc(O)c3c(=O)c2OC)cc(O)c1O (centres undefined) | 1.05 µM | > 50 µM | Activity [3]: 6.97%; Activity [4]: 76%; Activity [5]: 2.75%; viability at 3 µM [6]: 14.2%
